Data taken from patent US20040157818A1, “Cxcr4-antagonistic drugs composed of nitrogen-containing compound” (priority 2001, published 2004).

Biological target: T1, CXCR4 (Homo sapiens, UniProt P61073)
T1 construct: endogenous in cells; host or cells: MT-4 cells
Experiment: CXCR4-binding inhibition activity (125I-SDF-1α binding to MT-4 cells)
Settings: 0.1 μM test material, ligand 125I-SDF-1α, 2 hours under ice cold condition
Procedure: CXCR4-Binding Inhibition Activity
MT-4 cells (5×10^6/0.2 ml/well) were cultured on a 24-well microtiter plate. After the cells were incubated for 24 hours at 37° C. in a carbon dioxide gas incubator, a culture mediumwas replaced with a buffer solution (RPMI-1640 containing 0.1% BSA). Together with a ligand ^125I-SDF-1α (specific activity: 2,2000 Ci/mmol; DAIICHI PURE CHEMICALS CO. ,LTD. (Tokyo)), various concentrations of test materials were subjected to a binding reaction for 2 hours under ice cold condition.

T1 sequence (P61073 whole entry): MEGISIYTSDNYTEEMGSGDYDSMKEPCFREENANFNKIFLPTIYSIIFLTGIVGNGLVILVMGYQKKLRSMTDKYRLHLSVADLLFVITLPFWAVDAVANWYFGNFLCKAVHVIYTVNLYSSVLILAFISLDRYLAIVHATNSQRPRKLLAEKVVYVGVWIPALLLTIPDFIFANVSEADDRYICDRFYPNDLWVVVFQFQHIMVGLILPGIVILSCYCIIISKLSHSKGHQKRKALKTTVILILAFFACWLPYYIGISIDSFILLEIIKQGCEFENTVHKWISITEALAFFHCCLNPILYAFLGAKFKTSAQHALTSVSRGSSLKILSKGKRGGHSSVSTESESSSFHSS

| inhibition rate (binding-inhibition % at 0.1 μM) [%] | Structure (SMILES) |
| --- | --- |
| 57.9 | C[C@H](NC(=O)[C@H](CCCNCc1nccn1C)NC(=O)c1ccc(CNCc2nccn2C)c2ccccc12)c1cccc2ccccc12 [Compound No. 87] |
| 52.0 | C[C@@H](NC(=O)[C@H](CCCNCc1ccccn1)NC(=O)c1ccc(CNCc2ncc[nH]2)c2ccccc12)c1cccc2ccccc12 [Compound No. 58] |
| 85.3 | O=C(N[C@@H](CCCNCc1ccccn1)C(=O)NCc1cccc2ccccc12)c1ccc(CNCc2ncc[nH]2)c2ccccc12 [Compound No. 40, (S)-2-(4-((N-imidazol-2-ylmethyl)aminomethyl)naphthoylamino)-5-(2-picolylamino)valerate 1-naphthalenemethylamide] |
| 26.4 | Cn1cccc1CNCCC[C@H](NC(=O)c1ccc(CNCc2ccccn2)cc1)C(=O)NCc1cccc2ccccc12 [Compound No. 5, (S)-2-(4-(N-2-picolylaminomethyl)benzoylamino)-5-((1-methylpyrrol-2-ylmethyl)amino)valerate 1-naphthalenemethylamide] |
| 60.9 | Cn1cccc1CNCCC[C@H](NC(=O)c1ccc(CNCc2nccn2C)cc1)C(=O)NCc1cccc2ccccc12 [Compound No. 30, (S)-2-(4-((1-methylimidazol-2-ylmethyl)aminomethyl)benzoylamino)-5-((1-methylpyrrol-2-ylmethyl)amino)valerate 1-naphthalenemethylamide] |
| 88.1 | N=C(N)NCCC[C@H](NC(=O)c1ccc(CNCc2ccccn2)c2ccccc12)C(=O)NCc1cccc2ccccc12 [Compound No. 44, N^α-(4-(N-2-picolylaminomethyl)naphthoyl)-L-arginine 1-naphthalenemethylamide] |
| 78.6 | O=C(N[C@@H](CCCNC1CCCc2cccnc21)C(=O)NCc1cccc2ccccc12)c1ccc(CNC2CCCc3cccnc32)c2ccccc12 (stereo partly drawn) [Compound No. 26, (2S)-2-(4-(5,6,7,8-tetrahydroquinolin-8-ylaminomethyl)naphthoyl)amino-5-(5,6,7,8-tetrahydroquinolin-8-ylamino)valerate 1-naphthalenemethylamide] |
| 84.2 | C[C@H](NC(=O)[C@H](CCCNC1=NCCCN1)NC(=O)c1ccc(CNCc2ncc[nH]2)cc1)c1cccc2ccccc12 [Compound No. 112, (S)-2-(4-((N-imidazol-2-ylmethyl)aminomethyl)benzoyl)amino-5-(3,4,5,6-tetrahydropyrimidin-2-yl)amino valerate(1′S)-1′-(1-naphthyl)ethylamide] |
| 90.0 | O=C(N[C@@H](CCCNC1CCCc2cccnc21)C(=O)NCc1cccc2ccccc12)c1ccc(CNCc2ccccn2)c2ccccc12 (stereo partly drawn) [Compound No. 38, (2S)-2-(4-(N-2-picolylaminomethyl)naphthoylamino)-5-(5,6,7,8-tetrahydroquinolin-8-ylamino)valerate 1-naphthalenemethylamide] |
| 40.6 | O=C(N[C@@H](CCCNC1CCCc2cccnc21)C(=O)NCc1cccc2ccccc12)c1ccc(CNc2ccccn2)c2ccccc12 (stereo partly drawn) [Compound No. 104, (2S)-2-(4-(2-pyridyl)aminomethylnaphthalene-1-carbonyl)anmino-5-(5,6,7,8-tetrahydroquinolin-8-yl)amino valerate 1-naphthylmethylamide] |
| 71.5 | N=C(N)NCCC[C@H](NC(=O)c1ccc(CNCc2ncc[nH]2)cc1)C(=O)NCc1cccc2ccccc12 [Compound No. 53, N^α-(4-((imidazol-2-ylmethyl)aminomethyl)benzoyl)-L-arginine 1-naphthalenemethylamide] |
| 82.1 | O=C(N[C@@H](CCCNCc1ccccn1)C(=O)NCc1cccc2ccccc12)c1ccc(CNCc2ccccn2)c2ccccc12 [Compound No. 27, (S)-2-(4-(N-2-picolylaminomethyl)naphthoylamino)-5-(2-picolylamino)valerate 1-naphthalenemethylamide] |
| 75.7 | C[C@H](NC(=O)[C@H](CCCNC1=NCCN1)NC(=O)c1ccc(CNCc2ncc[nH]2)cc1)c1cccc2ccccc12 [Compound No. 110, (S)-2-(4-((N-imidazol-2-ylmethyl)aminomethyl)benzoyl)amino-5-(4,5-dihydroimidazol-2-yl)amino valerate(1′S)-1′-(1-naphthyl)ethylamide] |
| 12.8 | O=C(N[C@@H](CCCNCc1ncc[nH]1)C(=O)NCc1cccc2ccccc12)c1ccc(CNCc2ncc[nH]2)cc1 [Compound No. 21, (S)-2-(4-((imidazol-2-ylmethyl)aminomethyl)benzoylamino)-5-((imidazol-2-ylmethyl)amino)valerate 1-naphthalenemethylamide] |
| 91.9 | O=C(N[C@@H](CCCN[C@H]1CCCc2cccnc21)C(=O)NCc1cccc2ccccc12)c1ccc(CNCc2ccccn2)c2ccccc12 [Compound No. 105, (2S)-2-(4-(N-2-picolylaminomethyl)naphthalene-1-carbonyl)amino-5-((8S)-5,6,7,8-tetrahydroquinolin-8-yl)amino valerate 1-naphthylmethylamide] |
| 94.6 | O=C(N[C@@H](CCCN[C@@H]1CCCc2cccnc21)C(=O)NCc1cccc2ccccc12)c1ccc(CNCc2ccccn2)c2ccccc12 [Compound No. 55, (2S)-2-(4-(N-2-picolylaminomethyl)naphthoylamino)-5-((8R)-5,6,7,8-tetrahydroquinolin-8-ylamino)valerate 1-naphthalenemethylamide] |
| 94.0 | C[C@H](NC(=O)[C@H](CCCNC1CCCc2cccnc21)NC(=O)c1ccc(CNCc2ccccn2)cc1)c1cccc2ccccc12 (stereo partly drawn) [Compound No. 91, (2S)-2-(4-(N-2-picolylaminomethyl)benzoyl)amino-5-(5,6,7,8-tetrahydroquinolin-8-yl)amino valerate(1′S)-1′-(1-naphthyl)ethylamide] |
| 90.7 | C[C@H](NC(=O)[C@H](CCCNC1CCCc2cccnc21)NC(=O)c1ccc(CNCc2ccccn2)c2ccccc12)c1cccc2ccccc12 (stereo partly drawn) [Compound No. 85, (2S)-2-(4-(N-2-picolylaminomethyl)naphthoyl)amino-5-(5,6,7,8-tetrahydroquinolin-8-yl)amino valerate(1′S)-1′-(1-naphthyl)-ethylamide] |
| 56.8 | Cn1ccnc1CNCCC[C@H](NC(=O)c1ccc(CNCc2nccn2C)c2ccccc12)C(=O)NCc1cccc2ccccc12 [Compound No. 29, (S)-2-(4-((1-methylimidazol-2-ylmethyl)aminomethyl)naphthoylamino)-5-((1-methylimidazol-2-ylmethyl)amino)valerate 1-naphthalenemethylamide] |
| 51.6 | O=C(N[C@@H](CCCNC1CCCc2cccnc21)C(=O)NCc1cccc2ccccc12)c1ccc(CNC2CCCc3cccnc32)cc1 (stereo partly drawn) [Compound No. 64, (2S)-2-(4-((5,6,7,8-tetrahydroquinolin-8-yl)aminomethyl)benzoylamino)-5-((5,6,7,8-tetrahydroquinolin-8-yl)amino)valerate 1-naphthalenemethylamide] |
